Source: US8263606B2 (Xenon Pharmaceuticals Inc., priority 2008, dated 2012)

Tests used:
sodium channel = assay: Guanidine influx assay (14C-guanidine radiotracer flux, in vitro); type: cell-based, human or rat; conditions: guanidine influx assay using a known cell line that expresses a sodium channel
Method in brief: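 IC50 derives from a four-parameter logistic fit of 14C-guanidine uptake, test agent serially half-diluted around a 1 μM midpoint. Flux was driven by aconitine in low-sodium HEPES/choline saline at ambient temperature, using endogenous or recombinant human or rat sodium-channel cell lines plated ~100,000/well for 20–24 h.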

CYP3A4 = CYP3A4 (Homo sapiens, UniProt P08684); assay: Cytochrome P450 (CYP450) Inhibition Assay, CYP3A4 (Vivid fluorescence, BOMCC substrate); conditions: human, P450 Baculosomes (recombinant CYP3A4), probe BOMCC (Vivid substrate)
Chain of CYP3A4 (P08684 whole entry): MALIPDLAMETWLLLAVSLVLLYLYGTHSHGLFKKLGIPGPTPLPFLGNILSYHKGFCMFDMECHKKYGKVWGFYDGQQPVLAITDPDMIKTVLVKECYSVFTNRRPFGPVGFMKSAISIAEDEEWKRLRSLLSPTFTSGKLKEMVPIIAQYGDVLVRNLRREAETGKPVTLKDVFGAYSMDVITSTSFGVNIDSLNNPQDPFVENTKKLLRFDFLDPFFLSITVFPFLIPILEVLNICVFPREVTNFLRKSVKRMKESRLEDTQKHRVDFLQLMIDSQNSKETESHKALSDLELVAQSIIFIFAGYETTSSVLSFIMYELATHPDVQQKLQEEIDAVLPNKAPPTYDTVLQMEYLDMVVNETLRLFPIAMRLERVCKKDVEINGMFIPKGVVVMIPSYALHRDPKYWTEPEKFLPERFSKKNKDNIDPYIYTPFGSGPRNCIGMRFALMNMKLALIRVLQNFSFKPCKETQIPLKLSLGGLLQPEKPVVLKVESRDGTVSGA

Compound | IC50 (sodium channel) | melting point | inhibition at 10 µM (CYP3A4) | IC50 (sodium channel; activity level class)
CN(C(=O)CN1C(=O)C2(COc3cc4c(cc32)CCO4)c2ccccc21)c1ccccc1 (stereo not shown) [Example 12.52, N-methyl-2-(2′-oxo-5,6-dihydrospiro[benzo[1,2-b:5,4-b′]difuran-3,3′-indol]-1′(2′H)-yl)-N-phenylacetamide] | 100 to 1000 nM | 234 to 238 °C | > 50% | –
CN(C)c1ccc(CN2C(=O)C3(COc4cc5c(cc43)OCCO5)c3ccccc32)nc1 (stereo not shown) [Example 33.4, 1′-{[5-(dimethylamino)pyridin-2-yl]methyl}-2,3-dihydrospiro[furo[2,3-g][1,4]benzodioxine-8,3′-indol]-2′(1′H)-one] | 1 to 100 nM | 229 to 236 °C | > 50% | –
O=C1Nc2ccccc2C12COc1cc3c(cc12)CCCO3 (stereo not shown) [Example 3.21, 6,7-dihydro-5H-spiro[furo[3,2-g]chromene-3,3′-indol]-2′(1′H)-one] | – | 216 to 220 °C | < 50% | 100 to 1000 nM
C[C@@H](CN1C(=O)C2(COc3cc4c(cc32)CCO4)c2ccccc21)OCc1ccccc1 (stereo partly drawn) [Example 14.1, 1′-[(2S)-2-(benzyloxy)propyl]-5,6-dihydrospiro[benzo[1,2-b:5,4-b′]difuran-3,3′-indol]-2′(1′H)-one] | 100 to 1000 nM | 45 to 47 °C | > 50% | –
C[C@@H](CN1C(=O)C2(COc3cc4c(cc32)CCO4)c2ccccc21)OCc1ccccn1 (stereo partly drawn) [Example 14.3, 1′-[(2S)-2-(pyridin-2-ylmethoxy)propyl]-5,6-dihydrospiro[benzo[1,2-b:5,4-b′]difuran-3,3′-indol]-2′(1′H)-one] | 1000 to 10000 nM | 46 to 54 °C | > 50% | –
O=C1N(C[C@H]2CCCO2)c2ccccc2C12COc1cc3c(cc12)OCC3 (stereo partly drawn) [Example 8.9, 1′-[(2R)-tetrahydrofuran-2-ylmethyl]-6,7-dihydrospiro[benzo[1,2-b:4,5-b′]difuran-3,3′-indol]-2′(1′H)-one] | – | 162 to 164 °C | < 50% | 100 to 1000 nM
O=C1N(Cc2ccc(O)cc2)c2ccccc2C12COc1cc3c(cc12)CCO3 (stereo not shown) [Example 17, 1′-(4-hydroxybenzyl)-5,6-dihydrospiro[benzo[1,2-b:5,4-b′]difuran-3,3′-indol]-2′(1′H)-one] | 1 to 100 nM | 226 to 227 °C | > 50% | –
COc1ccc(CN2C(=O)C3(COc4cc5onc(N)c5cc43)c3ccccc32)cc1 (stereo not shown) [Example 44, 3-amino-1′-(4-methoxybenzyl)spiro[furo[3,2-f][1,2]benzisoxazole-5,3′-indol]-2′(1′H)-one] | 100 to 1000 nM | 214 to 216 °C | > 50% | –
CN1CCO[C@H](CN2C(=O)[C@@]3(COc4cc5c(cc43)OCCO5)c3ccccc32)C1 [Example 11.106, (8S)-1′-{[(2S)-4-methylmorpholin-2-yl]methyl}-2,3-dihydrospiro[furo[2,3-g][1,4]benzodioxine-8,3′-indol]-2′(1′H)-one] | 1 to 100 nM | 85 to 90 °C | < 50% | –
O=C1N(Cc2nc(C(F)(F)F)cs2)c2ccccc2C12COc1cc3c(cc12)OCCO3 (stereo not shown) [Example 5.23, 1′-{[4-(trifluoromethyl)-1,3-thiazol-2-yl]methyl}-2,3-dihydrospiro[furo[2,3-g][1,4]benzodioxine-8,3′-indol]-2′(1′H)-one] | – | 169 to 170 °C | > 50% | 1 to 100 nM
O=C1N(Cc2ccccn2)c2ccccc2C12COc1cc3c(cc12)OCCO3 (stereo not shown) [Example 4.41, 1′-(pyridin-2-ylmethyl)-2,3-dihydrospiro[furo[2,3-g][1,4]benzodioxine-8,3′-indol]-2′(1′H)-one] | – | 208 to 209 °C | < 50% | 1 to 100 nM
COc1ccc2c(c1)OCC21C(=O)N(Cc2ccccn2)c2ccccc21 (stereo not shown) [Example 9.33, 6-methoxy-1′-(pyridin-2-ylmethyl)-2H-spiro[benzofuran-3,3′-indolin]-2′-one] | – | 122 to 123 °C | < 50% | 1 to 100 nM
O=C1N(Cc2cnc(N3CCCCC3)s2)c2ccccc2C12COc1cc3c(cc12)OCO3 (stereo not shown) [Example 11.3, 1′-[(2-piperidin-1-yl-1,3-thiazol-5-yl)methyl]spiro[furo[2,3-f][1,3]benzodioxole-7,3′-indol]-2′(1′H)-one] | 100 to 1000 nM | 195 to 197 °C | > 50% | –
O=C1CC[C@@H](CN2C(=O)C3(COc4cc5c(cc43)CCO5)c3ccccc32)N1 (stereo partly drawn) [Example 9.2, 1′-{[(2S)-5-oxopyrrolidin-2-yl]methyl}-5,6-dihydrospiro[benzo[1,2-b:5,4-b′]difuran-3,3′-indol]-2′(1′H)-one] | – | 133 to 136 °C | < 50% | 1000 to 10000 nM
O=C(NCc1cccs1)c1ccc(CN2C(=O)C3(COc4cc5c(cc43)CCO5)c3ccccc32)cc1 (stereo not shown) [Example 12.38, 4-[(2′-oxo-5,6-dihydrospiro[benzo[1,2-b:5,4-b′]difuran-3,3′-indol]-1′(2′H)-yl)methyl]-N-(thiophen-2-ylmethyl)benzamide] | 100 to 1000 nM | 167 to 168 °C | > 50% | –
COc1ccc(CN2C(=O)C3(COc4cc(F)c(C#N)cc43)c3ccccc32)cc1 (stereo not shown) [Example 2.40, 6-fluoro-1′-(4-methoxybenzyl)-2′-oxo-1′,2′-dihydrospiro[1-benzofuran-3,3′-indole]-5-carbonitrile] | – | 142 to 143 °C | > 50% | 1000 to 10000 nM
O=C1N(Cc2cnc(Br)s2)c2ccccc2C12COc1cc3c(cc12)OCO3 (stereo not shown) [Example 4.81, 1′-[(2-bromo-1,3-thiazol-5-yl)methyl]spiro[furo[2,3-f][1,3]benzodioxole-7,3′-indol]-2′(1′H)-one] | – | 215 to 217 °C | > 50% | 1 to 100 nM
O=C1N(Cc2ccc(N3CCOCC3)cn2)c2ccccc2C12COc1cc3c(cc12)OCCO3 (stereo not shown) [Example 33.3, 1′-[(5-morpholin-4-ylpyridin-2-yl)methyl]-2,3-dihydrospiro[furo[2,3-g][1,4]benzodioxine-8,3′-indol]-2′(1′H)-one] | 100 to 1000 nM | 204 to 206 °C | < 50% | –
NC(=O)c1cccc(CN2C(=O)C3(COc4cc5c(cc43)OCCO5)c3ccccc32)c1 (stereo not shown) [Example 12.61, 3-[(2′-oxo-2,3-dihydrospiro[furo[2,3-g][1,4]benzodioxine-8,3′-indol]-1′(2′H)-yl)methyl]benzamide] | 100 to 1000 nM | 130 to 135 °C | > 50% | –
O=C1N(Cc2ccccn2)c2ccccc2C12COc1ccc3c(c12)OCCO3 (stereo not shown) [Example 4.127, 1-(pyridin-2-ylmethyl)-2,3-dihydrospiro[furo[3,2-f][1,4]benzodioxine-9,3′-indol]-2′(1′H)-one] | – | 132 to 134 °C | – | 1000 to 10000 nM
O=C1N(C(c2ccccc2)c2ccccc2)c2cccc(F)c2C12COc1cc3c(cc12)OCCO3 (stereo not shown) [Example 2.44, 1′-(diphenylmethyl)-4′-fluoro-2,3-dihydrospiro[furo[2,3-g][1,4]benzodioxine-8,3′-indol]-2′(1′H)-one] | – | 196 to 198 °C | – | 100 to 1000 nM
